Patent US11358969B2, “Indole AHR inhibitors and uses thereof” (Ikena Oncology, Inc., priority 2017, dated 2022)

Target: T1, AHR (UniProt P35869)
T1 construct: IC50
T1 sequence (P35869 1-848): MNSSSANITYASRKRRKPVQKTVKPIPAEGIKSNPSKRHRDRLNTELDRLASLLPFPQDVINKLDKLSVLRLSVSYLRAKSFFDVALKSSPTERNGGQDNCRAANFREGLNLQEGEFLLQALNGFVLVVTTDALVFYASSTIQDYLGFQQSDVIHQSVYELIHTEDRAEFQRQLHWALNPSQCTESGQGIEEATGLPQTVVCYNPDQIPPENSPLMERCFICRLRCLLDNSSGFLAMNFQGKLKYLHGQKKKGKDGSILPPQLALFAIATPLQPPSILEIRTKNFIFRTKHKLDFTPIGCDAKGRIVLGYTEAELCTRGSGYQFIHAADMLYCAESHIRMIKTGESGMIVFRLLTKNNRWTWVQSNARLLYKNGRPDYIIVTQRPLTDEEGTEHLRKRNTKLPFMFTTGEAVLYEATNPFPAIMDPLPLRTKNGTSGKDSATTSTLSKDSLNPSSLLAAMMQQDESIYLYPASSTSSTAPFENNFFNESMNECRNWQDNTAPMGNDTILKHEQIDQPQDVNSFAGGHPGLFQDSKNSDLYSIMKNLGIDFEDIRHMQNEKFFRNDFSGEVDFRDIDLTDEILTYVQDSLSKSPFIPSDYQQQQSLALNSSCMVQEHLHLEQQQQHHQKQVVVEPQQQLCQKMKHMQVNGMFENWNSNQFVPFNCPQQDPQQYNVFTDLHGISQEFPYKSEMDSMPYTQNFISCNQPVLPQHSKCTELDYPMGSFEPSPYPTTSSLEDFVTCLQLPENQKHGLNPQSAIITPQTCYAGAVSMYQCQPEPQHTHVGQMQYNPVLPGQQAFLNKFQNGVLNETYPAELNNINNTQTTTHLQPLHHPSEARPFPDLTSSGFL
Assay: DRE-Luciferase Reporter Assay (Alternate Method) (Example 1B)
Type: cell-based, murine or human
Settings: cell line and AHR activating ligand not specified

IC50	SMILES
< 500 nM	OCc1cnn2c(NC3CCc4[nH]c5ccccc5c4C3)nc(-c3cncc(F)c3)nc12 (stereo not drawn) [I-278]
< 500 nM	C#Cc1cnn2c(NC3CCc4[nH]c5ccccc5c4C3)nc(-c3cncc(F)c3)nc12 (stereo not drawn) [I-282]
> 1500 nM	CNC(=O)c1cnn2c(NC3CCc4[nH]c5ccccc5c4C3)nc(-c3cncc(F)c3)nc12 (stereo not drawn) [I-283]
> 1500 nM	O=C(NC1CC1)c1cnn2c(NC3CCc4[nH]c5ccccc5c4C3)nc(-c3cncc(F)c3)nc12 (stereo not drawn) [I-285]
< 500 nM	CON(C)C(=O)c1cnn2c(NC3CCc4[nH]c5ccccc5c4C3)nc(-c3cncc(F)c3)nc12 (stereo not drawn) [I-286]
> 1500 nM	O=C(O)c1cnn2c(NC3CCc4[nH]c5ccccc5c4C3)nc(-c3cncc(F)c3)nc12 (stereo not drawn) [I-287]
< 500 nM	CN(C)C(=O)c1cnn2c(NC3CCc4[nH]c5ccccc5c4C3)nc(-c3cncc(F)c3)nc12 (stereo not drawn) [I-288]

The remaining lines, values behind:

SMILES	IC50
CC(C)c1cnn2c(NC3CCc4[nH]c5ccccc5c4C3)nc(-c3cncc(C(F)(F)F)c3)nc12 (stereo not drawn) [I-279]	> 1500 nM
CC(C)c1cnn2c(NC3CCc4[nH]c5ccccc5c4C3)nc(-c3ccc(C(F)(F)F)nc3)nc12 (stereo not drawn) [I-280]	> 1500 nM
CC(C)c1cnn2c(NC3CCc4[nH]c5ccccc5c4C3)nc(-n3ccnc3)nc12 (stereo not drawn) [I-281]	< 500 nM
CC(C)c1cnn2c(NC3CCc4[nH]c5ccccc5c4C3)nc(-c3ccnnc3)nc12 (stereo not drawn) [I-284]	500 to 1000 nM
CC(C)c1cnn2c(NCCc3n[nH]c4ccccc34)nc(-c3cncc(F)c3)nc12 [I-289]	< 500 nM
